# Assay results reported in patent US6214537A, “Synthetic peptides and mixtures thereof for detecting HIV antibodies” (Biochem Immunosystems, Inc., priority 1988, dated 2001).
# Positions of bridges follow the written chain, without caps; N, C: chain ends. Residues, ends and D or L forms follow the SMILES beside them.
# Columns and labels:
# [1] = tested on: HIV-1 antibodies; experiment: ELISA, single peptides identifying HIV-1 positive sera; format: binding, human; conditions: ELISA, single peptide
# Protocol: According to this test a peptide or a peptide mixture of the present invention is adsorbed onto the wells of a microtiter plate. The wells are then treated with sera to be tested. After washing, anti-human IgG labeled with peroxidase is added to the wells. The determination of the peroxidase is performed with a corresponding substrate, e.g. with o-phenylene diamine. Also in this procedure the peroxidase can be exchanged by another label, e.g. by a radioactive or fluorescence label.
# (§1) Each well of the microtiter plate is saturated with 100 μl of a solution containing a peptide or mixture of peptides (5 μg/ml) and left overnight. The wells are emptied and washed twice with a washing buffer (Tris, 0.043M; NaCl, 0.5M;thimerosal, 0.01% w/v; Tween 20, 0.05% v/v; pH 7.4). The wells are then saturated with 0.35 ml of washing buffer for 1 hr. at 37° C. and washed once with the same buffer. Serum samples to be analyzed are diluted with specimen buffer (washing buffer plus casein, 0.05% w/v). The wells are rinsed with washing buffer prior to the addition of the diluted serum sample (0.1 ml). These are left to incubate for 1 hr. at room temperature. The wells are then emptied, washed twice rapidly and then once for two minutes with washing buffer. […] The wells are then emptied and washed twice rapidly with washing buffer and then five times in which the buffer was in contact with the well 2 minutes per washing.
# (§2) The substrate solution (3,3', 5,5'-tetramethylbenzidine, 8 mg per ml of DMSO) is diluted with 100 volumes 0.1M citrate-acetate buffer, pH 5.6 containing 0.1% v/v of 30% H2 O2 and added to each well (0.1 ml per well). After 10 minutes the contents of each well is treated with 0.1 ml 2N H2 SO4 and the optical density read at 450 nm. All determinations are done in duplicate.
# [2] = tested on: HIV-1-antibodies; experiment: ELISA, cyclic versus non-cyclic peptides, sera at various dilutions; format: binding, human
# Protocol: TABLE 5 is provided to illustrate the sensitivity of cyclic versus noncyclic peptides in the ELISA test by comparing the results of some sera at various dilutions.
# (§3) Plates used in this experiment were coated with solutions of peptides at 10 μg/ml. (Experimental results of TABLE 5 were obtained with plates coated with peptides at 0,5 μg/ml). Four different HIV-1 positive serum samples were serially diluted and their titers determined. The titer was defined as the serum dilution giving an absorbancy reading of 1:0 in the conditions of the ELISA procedure already described.
# as §1, §2
# [3] = tested on: antibodies specific to HIV-1; experiment: ELISA serum titers, plates coated with cyclic 87c versus linear 87; format: binding, human
# Source text: (§4) Even though results presented in TABLE 5 clearly show the superiority of cyclic peptides over their linear counterpart in detecting HIV-1-antibodies, that increased sensitivity could have been underestimated because of probable cyclization and polymerization of the linear peptide after solubilization in a carbonate buffer (pH 9.6). That experiment was repeated with the linear 87 and cyclic 87c peptides dissolved in a carbonate buffer (pH 9.6) as before and also in 10% acetic acid (pH 2.7). […] It is believed that cydization and polymerization also occured in the wells of the microtiter plates although the exact proportion of cyclic peptide bound to the plates versus linear has not been as yet determined.
# as §3
# The ratios of sensitivities measured with the cyclic peptide over the linear 87 peptide vary between 1:3 and 2:2 with an average of 1:8. These ratios are even larger, varying from 3:0 to 4:5, when the sensitivity of the ELISA test using the cyclic 87c peptide is compared using conditions (acidic pH) where the linear 87 peptide remains linear and is not allowed to cyclize or polymerize.
# [4] = State of peptide in coating solution (HPLC, Ellman's test); format: physicochemical; conditions: for state of peptide in solution (HPLC, Ellman's test): 10% acetic acid (pH 2.7)
# Source text: as §4
# [5] = tested on: HIV-1 antibodies; experiment: ELISA plates coated with cyclic 87c versus linear 87 or polymers of 87: sensitivity and background; format: binding, human
# [6] = coating buffer 10% Acetic Acid (pH 2.7), serum M-5, coated at 10 μg/ml
# [7] = coating buffer 10% Acetic Acid (pH 2.7), serum M-7, coated at 10 μg/ml
# [8] = coating buffer 10% Acetic Acid (pH 2.7), serum M-8, coated at 10 μg/ml
# [9] = coating buffer 10% Acetic Acid (pH 2.7), serum M-16, coated at 10 μg/ml
# [10] = coating buffer Carbonate Bicarbonate 0.1M (pH 9.6), serum M-5, coated at 10 μg/ml
# [11] = coating buffer Carbonate Bicarbonate 0.1M (pH 9.6), serum M-7, coated at 10 μg/ml
# [12] = coating buffer Carbonate Bicarbonate 0.1M (pH 9.6), serum M-8, coated at 10 μg/ml
# [13] = coating buffer Carbonate Bicarbonate 0.1M (pH 9.6), serum M-16, coated at 10 μg/ml
compound,measurement,setting,value
NH2 -RILAVERYLKDQQLLGIWGCSGKLICTTAVPWNAS-COOH [Peptide 87],% Positive Sera correctly Identified,[1],99%
same,ELISA optical density,"[2]; serum 87V103, dilution 1/50",0.005 optical density units
same,ELISA optical density,"[2]; serum 1428, dilution 1/50",1.463 optical density units
same,ELISA optical density,"[2]; serum M-5, dilution 1/50",1.809 optical density units
same,ELISA optical density,"[2]; serum M-5, dilution 1/100",1.685 optical density units
same,ELISA optical density,"[2]; serum M-5, dilution 1/200",1.513 optical density units
same,ELISA optical density,"[2]; serum M-5, dilution 1/400",1.418 optical density units
same,ELISA optical density,"[2]; serum M-5, dilution 1/800",1.012 optical density units
same,ELISA optical density,"[2]; serum M-7, dilution 1/50",1.504 optical density units
same,ELISA optical density,"[2]; serum M-7, dilution 1/100",1.329 optical density units
same,ELISA optical density,"[2]; serum M-7, dilution 1/200",1.184 optical density units
same,ELISA optical density,"[2]; serum M-7, dilution 1/400",0.923 optical density units
same,ELISA optical density,"[2]; serum M-7, dilution 1/800",0.571 optical density units
same,ELISA optical density,"[2]; serum M-8, dilution 1/50",1.390 optical density units
same,ELISA optical density,"[2]; serum M-8, dilution 1/100",1.087 optical density units
same,ELISA optical density,"[2]; serum M-8, dilution 1/200",0.883 optical density units
same,ELISA optical density,"[2]; serum M-8, dilution 1/400",0.593 optical density units
same,ELISA optical density,"[2]; serum M-8, dilution 1/800",0.240 optical density units
same,ELISA optical density,"[2]; serum M-16, dilution 1/50",1.846 optical density units
same,ELISA optical density,"[2]; serum M-16, dilution 1/100",1.784 optical density units
same,ELISA optical density,"[2]; serum M-16, dilution 1/200",1.740 optical density units
same,ELISA optical density,"[2]; serum M-16, dilution 1/400",1.634 optical density units
same,ELISA optical density,"[2]; serum M-16, dilution 1/800",1.537 optical density units
same,serum titer,[3]; [6],4500
same,serum titer,[3]; [7],2300
same,serum titer,[3]; [8],1400
same,serum titer,[3]; [9],15000
same,serum titer,[3]; [10],10500
same,serum titer,[3]; [11],6000
same,serum titer,[3]; [12],2900
same,serum titer,[3]; [13],33000
same,"state of peptide in solution (HPLC, Ellman's test)",[4],remained linear
same,state of peptide in solution (HPLC),"[4]; carbonate buffer (pH 9.6), room temperature",underwent cyclization and polymerization
CC[C@H](C)[C@H](NC(=O)CNC(=O)[C@H](CC(C)C)NC(=O)[C@H](CC(C)C)NC(=O)[C@H](CCC(N)=O)NC(=O)[C@H](CCC(N)=O)NC(=O)[C@H](CC(=O)O)NC(=O)[C@H](CCCCN)NC(=O)[C@H](CC(C)C)NC(=O)[C@H](Cc1ccc(O)cc1)NC(=O)[C@H](CCCNC(=N)N)NC(=O)[C@H](CCC(=O)O)NC(=O)[C@@H](NC(=O)[C@H](C)NC(=O)[C@H](CC(C)C)NC(=O)[C@@H](NC(=O)[C@@H](N)CCCNC(=N)N)[C@@H](C)CC)C(C)C)C(=O)N[C@@H](Cc1c[nH]c2ccccc12)C(=O)NCC(=O)N[C@H]1CSSC[C@@H](C(=O)N[C@H](C(=O)N[C@H](C(=O)N[C@@H](C)C(=O)N[C@H](C(=O)N2CCC[C@H]2C(=O)N[C@@H](Cc2c[nH]c3ccccc23)C(=O)N[C@@H](CC(N)=O)C(=O)N[C@@H](C)C(=O)N[C@@H](CO)C(=O)O)C(C)C)[C@@H](C)O)[C@@H](C)O)NC(=O)[C@H]([C@@H](C)CC)NC(=O)[C@H](CC(C)C)NC(=O)[C@H](CCCCN)NC(=O)CNC(=O)[C@H](CO)NC1=O [Peptide 87c] (H-RILAVERYLKDQQLLGIWGCSGKLICTTAVPWNAS-OH; disulfide 20-26),% Positive Sera correctly Identified,[1],99%
same,ELISA optical density,"[2]; serum 87V103, dilution 1/50",0.011 optical density units
same,ELISA optical density,"[2]; serum 1428, dilution 1/50",> 2.0 optical density units
same,ELISA optical density,"[2]; serum M-5, dilution 1/50",> 2.0 optical density units
same,ELISA optical density,"[2]; serum M-5, dilution 1/100",> 2.0 optical density units
same,ELISA optical density,"[2]; serum M-5, dilution 1/200",> 2.0 optical density units
same,ELISA optical density,"[2]; serum M-5, dilution 1/400",> 2.0 optical density units
same,ELISA optical density,"[2]; serum M-5, dilution 1/800",1.854 optical density units
same,ELISA optical density,"[2]; serum M-7, dilution 1/50",> 2.0 optical density units
same,ELISA optical density,"[2]; serum M-7, dilution 1/100",> 2.0 optical density units
same,ELISA optical density,"[2]; serum M-7, dilution 1/200",1.729 optical density units
same,ELISA optical density,"[2]; serum M-7, dilution 1/400",1.348 optical density units
same,ELISA optical density,"[2]; serum M-7, dilution 1/800",0.611 optical density units
same,ELISA optical density,"[2]; serum M-8, dilution 1/50",> 2.0 optical density units
same,ELISA optical density,"[2]; serum M-8, dilution 1/100",> 2.0 optical density units
same,ELISA optical density,"[2]; serum M-8, dilution 1/200",1.655 optical density units
same,ELISA optical density,"[2]; serum M-8, dilution 1/400",1.064 optical density units
same,ELISA optical density,"[2]; serum M-8, dilution 1/800",0.384 optical density units
same,ELISA optical density,"[2]; serum M-16, dilution 1/50",> 2.0 optical density units
same,ELISA optical density,"[2]; serum M-16, dilution 1/100",> 2.0 optical density units
same,ELISA optical density,"[2]; serum M-16, dilution 1/200",> 2.0 optical density units
same,ELISA optical density,"[2]; serum M-16, dilution 1/400",> 2.0 optical density units
same,ELISA optical density,"[2]; serum M-16, dilution 1/800",1.962 optical density units
same,titer ratio A/B (87c cyclic / 87 linear),"[3]; 10% Acetic Acid (pH 2.7), serum M-5",3.0
same,titer ratio A/B (87c cyclic / 87 linear),"[3]; 10% Acetic Acid (pH 2.7), serum M-7",3.9
same,titer ratio A/B (87c cyclic / 87 linear),"[3]; 10% Acetic Acid (pH 2.7), serum M-8",4.5
same,titer ratio A/B (87c cyclic / 87 linear),"[3]; 10% Acetic Acid (pH 2.7), serum M-16",3.7
same,titer ratio A/B (87c cyclic / 87 linear),"[3]; Carbonate Bicarbonate 0.1M (pH 9.6), serum M-5",1.3
same,titer ratio A/B (87c cyclic / 87 linear),"[3]; Carbonate Bicarbonate 0.1M (pH 9.6), serum M-7",1.8
same,titer ratio A/B (87c cyclic / 87 linear),"[3]; Carbonate Bicarbonate 0.1M (pH 9.6), serum M-8",2.2
same,titer ratio A/B (87c cyclic / 87 linear),"[3]; Carbonate Bicarbonate 0.1M (pH 9.6), serum M-16",1.7
same,serum titer,[3]; [6],13500
same,serum titer,[3]; [7],9000
same,serum titer,[3]; [8],6300
same,serum titer,[3]; [9],56000
same,serum titer,[3]; [10],13500
same,serum titer,[3]; [11],11000
same,serum titer,[3]; [12],6500
same,serum titer,[3]; [13],56000
same,sensitivity in detecting HIV-1 antibodies compared with plates coated with pool of fractions containing only polymers of peptide 87,[5],superiority
same,"state of peptide in solution (HPLC, Ellman's test)",[4],remained cyclic
